The assay deals with Male Zucker fa/fa rats. Put plainly: Day-night profile of glycemia and insulinemia, day 16 to day 17 of treatment. Type of assay: in vivo, rat. How it is done:
The parameters monitored were morning blood glucose and plasma insulin levels. […] An OGTT was performed finally on day 21 to monitor blood glucose and plasma insulin kinetics to assess changes in glucose tolerance. Glibenclamide (DAB 1996; R011150/33372) was donated by Berlin-Chemie (Berlin, Germany). Male Zucker (fa/fa) rats of the body weight class of 300 g were purchased from Charles River (Sulzfeld, Germany). […] Thereafter, the non-diabetic Wistar rats were treated orally once daily with RP (5 mg/kg b.w.) or TP (21.61 mg/kg b.w.) and the diabetic Zucker rats were treated orally once daily with RP (1 mg/kg b.w.) or TP (21.61 mg/kg b.w.) for 21 days at 05.00 p.m. (before regular food intake in the dark phase). The controls were given 1% cellulose solution orally (5 ml/kg). […] The oral drug therapy was continued for one week. […] Blood glucose: Glucose levels were measured using the glucose oxidase procedure (Super G Glukosemeβgerät; Dr. Müller Gerätebau, Freital, Germany). Plasma insulin: Insulin concentrations were assayed by the antibody RIA method (LINCO Research, Inc. St. Charles, Mo., USA).

Bounds are passed on as bounds.

As to “isoleucyl thiazolidine hemifumarate [P32/98]”, the “Mean blood glucose, day-night profile” value reads like this: (02.00 p.m. next day, RP 1 mg/kg, TP 21.61 mg/kg orally once daily) 5.51 ± 0.19 mmol/L; (08.00 a.m., TP 21.61 mg/kg orally once daily) 5.64 ± 0.23 mmol/L; (11.00 a.m., RP 1 mg/kg, TP 21.61 mg/kg orally once daily) 5.33 ± 0.14 mmol/L; (11.00 p.m., RP 1 mg/kg, TP 21.61 mg/kg orally once daily) 8.34 ± 0.47 mmol/L; (day 16, 05.00 p.m. before drug application, RP 1 mg/kg, TP 21.61 mg/kg orally once daily) 5.25 ± 0.16 mmol/L. The “Plasma insulin, day-night profile” value is, setting by setting: (02.00 p.m. the next day) 24.3 ± 3.7 ng/mL; (05.00 a.m. (maximum)) 57.1 ± 8.6 ng/mL; (05.00 p.m., RP 1 mg/kg, TP 21.61 mg/kg orally once daily) “significantly lower than in the RP”; (08.00 p.m.) 41.9 ± 8.5 ng/mL. The “Increase of glycemia from 05.00 p.m. to 11.00 p.m.” value (day 16) is “about 3 mmol/l”. For the same substance, for the setting “day 16, 05.00 p.m.”, the “Individual blood glucose values, range” value fell in the range of 4.34 to 6.07 mmol/L. The “Blood glucose in the day-night profile” value (given once daily) was < 8.3 mmol/L. Under “obese Zucker rat, subchronic treatment”, the “Economization (saving) of insulin compared to the control” value turned out to be 45%.

The values above are taken from US20010051646A1, “Method for the improvement of islet signaling in diabetes mellitus and for its prevention” (priority 2000, published 2001).
